According to the supplement of paper PMC10307832:

What was measured:
Assay in all cases: relative viability (nuclei count vs DMSO), 5 days (fraction); higher = more cells survive
AZ505 + Vorinostat = compound: C1CCC(CC1)N(CCNCCC2=C3C(=C(C=C2)O)NC(=O)CO3)C(=O)CCNCCC4=CC(=C(C=C4)Cl)Cl [AZ505] + O=C(CCCCCCC(=O)Nc1ccccc1)NO [Vorinostat] (partner 1 µM)
Method in brief: (§1)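 Medians of duplicate plates are given as relative viability. That measure is the nuclei count in treated wells divided by the count in vehicle wells. Counts were taken on 4× images of lung cancer cell lines in 1536-well plates, 5 days after pin-tool dosing the day after seeding with one drug alone or a fixed anchor-drug dose plus five library-drug doses (not always all listed) in √10 steps.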

Dactolisib + Decitabine = compound: Cn1c(=O)n(-c2ccc(C(C)(C)C#N)cc2)c2c3cc(-c4cnc5ccccc5c4)ccc3ncc21 [Dactolisib] + Nc1ncn([C@H]2C[C@H](O)[C@@H](CO)O2)c(=O)n1 [Decitabine] (partner 2 µM)
Method in brief: as §1

Dactolisib + Vorinostat = compound: Cn1c(=O)n(-c2ccc(C(C)(C)C#N)cc2)c2c3cc(-c4cnc5ccccc5c4)ccc3ncc21 [Dactolisib] + O=C(CCCCCCC(=O)Nc1ccccc1)NO [Vorinostat] (partner 1 µM)
Method in brief: as §1

Dactolisib + Dasatinib = compound: Cn1c(=O)n(-c2ccc(C(C)(C)C#N)cc2)c2c3cc(-c4cnc5ccccc5c4)ccc3ncc21 [Dactolisib] + Cc1nc(Nc2ncc(C(=O)Nc3c(C)cccc3Cl)s2)cc(N2CCN(CCO)CC2)n1 [Dasatinib] (partner 0.075 µM)
Method in brief: as §1

Row | Cell Line | relative viability (AZ505 + Vorinostat; first compound 0.253 µM) | relative viability (AZ505 + Vorinostat; first compound 0.8 µM) | relative viability (AZ505 + Vorinostat; first compound 2.53 µM) | relative viability (AZ505 + Vorinostat; first compound 8 µM) | relative viability (Dactolisib + Decitabine; first compound 0.002 µM) | relative viability (Dactolisib + Decitabine; first compound 0.006325 µM) | relative viability (Dactolisib + Decitabine; first compound 0.02 µM) | relative viability (Dactolisib + Decitabine; first compound 0.06325 µM) | relative viability (Dactolisib + Decitabine; first compound 0.2 µM) | relative viability (Dactolisib + Vorinostat; first compound 0.002 µM) | relative viability (Dactolisib + Vorinostat; first compound 0.006325 µM) | relative viability (Dactolisib + Vorinostat; first compound 0.02 µM) | relative viability (Dactolisib + Vorinostat; first compound 0.06325 µM) | relative viability (Dactolisib + Vorinostat; first compound 0.2 µM) | relative viability (AZ505 + Vorinostat; first compound 0.08 µM) | relative viability (Dactolisib + Dasatinib; first compound 0.002 µM) | relative viability (Dactolisib + Dasatinib; first compound 0.006325 µM) | relative viability (Dactolisib + Dasatinib; first compound 0.02 µM) | relative viability (Dactolisib + Dasatinib; first compound 0.06325 µM) | relative viability (Dactolisib + Dasatinib; first compound 0.2 µM)
1 | NCI-H1648 | 0.43 | 0.418 | 0.526 | 0.573 | 0.478 | 0.476 | 0.595 | 0.452 | 0.343 | 0.506 | 0.421 | 0.654 | 0.435 | 0.203 | – | – | – | – | – | –
2 | SK-MES-1 | 1 | 0.969 | 0.893 | 0.995 | 0.43 | 0.362 | 0.369 | 0.251 | 0.231 | 0.954 | 1 | 0.998 | 0.504 | 0.475 | 0.889 | 0.433 | 0.375 | 0.307 | 0.222 | 0.147
3 | SK-LU-1 | 0.463 | 0.513 | 0.548 | 0.588 | 0.523 | 0.72 | 0.6 | 0.44 | 0.388 | 0.766 | 0.697 | 0.671 | 0.448 | 0.321 | 0.488 | 0.148 | 0.172 | 0.162 | 0.145 | 0.127
4 | HCC-366 | 0.393 | 0.344 | 0.354 | 0.377 | 0.376 | 0.338 | 0.256 | 0.28 | 0.133 | 0.285 | 0.407 | 0.325 | 0.0887 | 0.0549 | 0.356 | 0.598 | 0.565 | 0.597 | 0.341 | 0.136
5 | 201T | 0.998 | 0.903 | 0.907 | 0.976 | 0.87 | 0.864 | 0.808 | 0.706 | 0.477 | 0.987 | 0.981 | 0.976 | 0.622 | 0.729 | 0.877 | 0.601 | 0.538 | 0.524 | 0.554 | 0.346
6 | HCC-827 | 0.732 | 0.7 | 0.92 | 0.924 | 0.387 | 0.343 | 0.337 | 0.27 | 0.294 | 0.966 | 0.934 | 0.785 | 0.498 | 0.82 | 0.906 | 0.28 | 0.331 | 0.301 | 0.238 | 0.207
7 | NCI-H647 | 0.747 | 0.529 | 0.583 | 1.06 | 0.487 | 0.292 | 0.188 | 0.116 | 0.14 | 0.369 | 0.308 | 0.265 | 0.123 | 0.0977 | 0.446 | 0.164 | 0.191 | 0.143 | 0.0579 | 0.068
8 | NCI-H2023 | 0.631 | 0.63 | 0.588 | 0.835 | 0.224 | 0.225 | 0.218 | 0.115 | 0.0931 | 0.305 | 0.479 | 0.439 | 0.098 | 0.11 | 0.57 | 0.487 | 0.454 | 0.376 | 0.0921 | 0.0851
9 | NCI-H520 | 0.847 | 0.648 | 0.731 | 0.781 | 0.527 | 0.476 | 0.456 | 0.206 | 0.156 | 0.747 | 0.596 | 0.416 | 0.212 | 0.151 | 0.594 | 0.182 | 0.177 | 0.149 | 0.122 | 0.17
10 | RERF-LC-KJ | 0.689 | 0.564 | 0.672 | 0.669 | 0.752 | 0.726 | 0.644 | 0.316 | 0.443 | 0.683 | 0.699 | 0.707 | 0.452 | 0.542 | 0.616 | 0.99 | 0.747 | 0.69 | 0.347 | 0.311
11 | A-427 | 0.839 | 0.82 | 0.872 | 0.837 | 0.605 | 0.571 | 0.609 | 0.457 | 0.436 | 0.894 | 0.864 | 0.834 | 0.706 | 0.647 | 0.877 | 0.841 | 0.645 | 0.668 | 0.436 | 0.352
12 | NCI-H441 | 0.881 | 0.735 | 0.782 | 0.876 | 0.285 | 0.256 | 0.31 | 0.233 | 0.203 | 0.841 | 0.675 | 0.802 | 0.276 | 0.34 | 0.786 | 0.729 | 0.477 | 0.527 | 0.357 | 0.205
13 | NCI-H1792 | – | – | – | – | 0.56 | 0.429 | 0.414 | 0.186 | 0.121 | – | – | – | – | – | – | 0.752 | 0.724 | 0.724 | 0.338 | 0.206
14 | SW 1573 | 0.806 | 1.53 | 0.756 | 0.79 | 0.556 | 0.336 | 0.299 | 0.185 | 0.149 | 0.571 | 0.588 | 0.627 | 0.243 | 0.25 | 0.807 | 0.627 | 0.493 | 0.306 | 0.146 | 0.119
15 | PC-3 [JPC-3] | – | 0.786 | 0.934 | 1.09 | 0.87 | 0.783 | 0.878 | 0.786 | 0.655 | 0.968 | 0.843 | 0.748 | 0.782 | 0.426 | 0.821 | 1.1 | 0.941 | 0.911 | 1.03 | 0.885
16 | EMC-BAC-2 | – | 0.512 | 0.547 | 0.722 | 1.01 | 0.861 | 0.888 | 0.54 | 0.551 | 0.492 | 0.442 | 0.353 | 0.266 | 0.219 | 0.486 | 0.337 | 0.325 | 0.342 | 0.209 | 0.18
17 | LK-2 | 0.318 | 0.33 | 0.405 | 0.392 | 0.347 | 0.305 | 0.335 | 0.159 | 0.142 | 0.317 | 0.247 | 0.294 | 0.239 | 0.213 | 0.295 | 0.279 | 0.322 | 0.31 | 0.182 | 0.144
